Experimental data: patent publication US6906035B2, “Antimicrobial cationic peptides” (priority 1995, dated 2005)
Several values for one entry are separate records, joined by “and”; a condition that tells them apart may be missing. Equal values may be shown once. Read-outs that look alike come from different tables or passages of the source.

What was measured:
P. aeruginosa [1] = system: P. aeruginosa
Description: (§1) FICs are performed by checkerboard titrations of peptides in one dimension of a microtiter plate, and of antibiotics in the other dimension, for example. The FIC is calculated by looking at the impact of one antibiotic on the MIC of the other and vice versa. […] Preferably, an FIC of less than 0.5 is obtained for synergism. As used herein, FIC can be determined as follows: [formula]
(§2) Briefly, cells were grown overnight at 37° C. in LB-S (Luria broth without any salt supplement) and diluted one in 10,000 in the same medium to give concentrations of about 10^4 to 10^5 CFU/ml. The broth dilutions were set up in a 96 well microtiter plate by putting 200 μl of LB-S containing the initial concentration of antibiotic or compound in column 1 and 100 μl of the same medium in columns 2-12. The compounds were diluted by taking 100 μl of broth from column 1 and mixing it with column 2, resulting in a one in two dilution. This was continued to column 10. Finally, 10 μl of bacteria were pipetted into columns 1-11, and the plates incubated overnight at 37° C. The next day the plates were scored for growth in the wells, and the MIC determined.

S. epidermis = details: S. epidermis
Description: as §1, §2

A. calcoaceticus [2] = assay: MIC, broth dilution in LB-S; type: cell-based; details: additional MICs
Description: (§3) The biological activity of the peptides can be determined by standard methods known to those of skill in the art, such as “minimal inhibitory concentration (MIC)” assay described in the present examples, whereby the lowest concentration at which no change in OD is observed for a given period of time is recorded as MIC. Alternatively, “fractional inhibitory concentration (FIC)” is also useful for determination of synergy between the peptides of the invention, or the peptides in combination with known antibiotics. FICs are performed by checkerboard titrations of peptides in one dimension of a microtiter plate, and of antibiotics in the other dimension, for example. The FIC is calculated by looking at the impact of one antibiotic on the MIC of the other and vice versa. […] Preferably, an FIC of less than 0.5 is obtained for synergism. As used herein, FIC can be determined as follows: [formula]
as §2

E. cloacae [3] = assay: MIC, broth dilution in LB-S; type: cell-based; details: additional MICs
Description: as §3, §2

E. coli = assay: MIC, broth dilution in LB-S; type: cell-based
Description: as §3, §2

E. faecalis = assay: MIC, broth dilution in LB-S; type: cell-based; details: Table 1b, separate set of experiments
Description: as §3, §2

K. pneumoniae = assay: MIC, broth dilution in LB-S; type: cell-based; details: additional MICs
Description: as §3, §2

S. aureus = assay: MIC, broth dilution in LB-S; type: cell-based
Description: as §3, §2

X maltophilia = assay: MIC, broth dilution in LB-S; type: cell-based; details: additional MICs
Description: as §3, §2

Candida albicans = assay: MIC, broth dilution in LB-S; type: cell-based
Description: as §1, §2

E. coli ML 35 = assay: Inner membrane permeabilization (ONPG hydrolysis by β-galactosidase); type: cell-based; details: E. coli ML 35, ONPG
Description: Inner membrane permeability was determined by measurement in E. coli ML 35 of β-galactosidase activity using ONPG as a substrate. Normally ONPG cannot pass across the cytoplasmic membrane to permit hydrolysis by the cytoplasmic enzyme β-galactosidase. However, cationic peptides, by permeabilizing the inner membrane, unmasks this enzyme leading to color development as ONP is released. […] Addition of citrate increased the lag time before the peptides were able to permeabilize the membranes. When the experiments were executed in cation adjusted media (CAMHB), the lag time was increased up to 30 minutes.

LPS = assay: Dansyl polymyxin displacement assay; type: binding; details: Dansyl polymyxin displacement from LPS
From the text: In addition, the peptides of SEQ ID NO: 5-8 also bound effectively to LPS with high affinity based on Dansyl polymyxin displacement assays (Table 5).

Red Blood Cells = assay: Red blood cell lysis; type: cell-based; details: concentration lysing Red Blood Cells
[4] = α helical content by CD spectra; type: physicochemical
Description: α Helical Content of Cationic Peptides by CD Spectra
The α helical content of the peptides were measured in buffer, liposomes and 20% Hexafluoroisopropanol (HFPIP). The liposomes constituted of POPC alone or POPC and POPC and 30% POPG (Table 7).

A. calcoaceticus [5] = details: agent alone
Description: as §1
(§4) Synergism is identified as an FIC of about ≦0.5.

E. cloacae [6] = details: agent alone
Description: as §1, §4

P. aeruginosa [7] = assay: microbe, parasite or virus in culture; details: agent alone
Description: as §1, §4

X. maltophila = assay: organism not typed; details: agent alone
Description: as §1, §4

Q: What does the source list for `CC[C@H](C)[C@H](NC(=O)[C@H](CC(C)C)NC(=O)[C@H](C)NC(=O)[C@@H]1CCCN1C(=O)[C@H](CC(C)C)NC(=O)CNC(=O)[C@@H](NC(=O)[C@@H](NC(=O)[C@H](CC(C)C)NC(=O)[C@@H](NC(=O)[C@H](CCCCN)NC(=O)[C@H](CCCCN)NC(=O)[C@@H](NC(=O)[C@H](C)NC(=O)[C@@H](NC(=O)[C@@H](NC(=O)[C@H](CC(C)C)NC(=O)[C@H](CCCCN)NC(=O)[C@H](CCCCN)NC(=O)[C@@H](NC(=O)[C@H](Cc1ccccc1)NC(=O)[C@H](CO)NC(=O)[C@H](CCCCN)NC(=O)[C@H](Cc1c[nH]c2ccccc12)NC(=O)[C@@H](N)CCCCN)[C@@H](C)CC)[C@@H](C)O)[C@@H](C)O)C(C)C)C(C)C)[C@@H](C)O)[C@@H](C)O)C(=O)N[C@@H](CO)C(=O)O` [MBI 29]?
A: MIC (P. aeruginosa [1]; P. aeruginasa (H 103), additional MICs): 4 µg/mL; MIC (P. aeruginosa [1]; P. aeruginosa (H187), Table 1a): 5 µg/mL; MIC (P. aeruginosa [1]; P. aeruginosa (H187), Table 1b, separate set of experiments): 16 µg/mL; MIC (P. aeruginosa [1]; P. aeruginosa (H187), Table 1b, separate set of experiments, listed as MBI 29^me): 8 µg/mL; MIC P. aeruginosa (H187) (P. aeruginosa [1]; P. aeruginosa (H187), Table 6): 1.0 µg/mL; MIC (S. epidermis; Table 1a): 10 µg/mL; MIC (S. epidermis; Table 1b, separate set of experiments): 16 µg/mL; MIC (S. epidermis; Table 1b, separate set of experiments, listed as MBI 29^me): 8 µg/mL; MIC (A. calcoaceticus [2]): 4 µg/mL; MIC (E. cloacae [3]): 2 µg/mL; MIC (E. coli; E. coli 0111:B4, additional MICs): 2 µg/mL; MIC (E. coli; E. coli (UB1005), Table 1a): 3 µg/mL; MIC (E. coli; E. coli (UB1005), Table 1b, separate set of experiments): 4 µg/mL; MIC E. coli (UB 1005) (E. coli; E. coli (UB 1005), Table 6): 0.5 µg/mL; MIC (E. coli; E. coli. Bort, additional MICs): 6 µg/mL; MIC (E. faecalis): 32 µg/mL; MIC (E. faecalis; listed as MBI 29^me): ≧64; MIC (K. pneumoniae): 16 µg/mL; MIC (S. aureus; S. aureus (K 147), Table 1a): 20 µg/mL; MIC (S. aureus; S. aureus (K147), Table 1b, separate set of experiments): 32 µg/mL; MIC (S. aureus; S. aureus (K147), Table 1b, separate set of experiments, listed as MBI 29^me): 16 µg/mL; MIC (S. aureus; S. aureus (SAP0017), Table 1a): 18 µg/mL; MIC (S. aureus; S. aureus (SAP0017), Table 1b, separate set of experiments): 32 µg/mL; MIC (S. aureus; S. aureus (SAP0017), Table 1b, separate set of experiments, listed as MBI 29^me): 16 µg/mL; MIC (X maltophilia): 3 µg/mL; MIC (Candida albicans; Candida albicans (CAN105), Table 1b, separate set of experiments): 32 µg/mL; MIC (Candida albicans; Candida alibicans (CAN105), Table 1a): 40 µg/mL; Lag Time (E. coli ML 35): 66 s; Rate of Hydrolysis (E. coli ML 35): 0.21 ΔAU min^−1; 1max (LPS): 40%; RBC Lysis (Red Blood Cells): >55 µg/mL; % α helicity ([4]; 20% HFIP): 50%; % α helicity ([4]; Buffer): 0%; % α helicity ([4]; POPC Liposomes): 16%; % α helicity ([4]; POPC/POPG Liposomes (30% POPG)): 8%; MIC (A. calcoaceticus [5]; A. calcoaceticus isolate 1, strain ATCC 23055): 32 µg/mL and 64 µg/mL; MIC (A. calcoaceticus [5]; A. calcoaceticus isolate 7, strain 8222): 16 µg/mL and 32 µg/mL; MIC (A. calcoaceticus [5]; A. calcoaceticus isolate 8, strain 8223): 16 µg/mL and 32 µg/mL; MIC (A. calcoaceticus [5]; A. calcoaceticus isolate 9, strain 8224): 16 µg/mL and 32 µg/mL; MIC (A. calcoaceticus [5]; A. calcoaceticus isolate 10, strain 8225): 16 µg/mL and 32 µg/mL; MIC (A. calcoaceticus [5]; A. calcoaceticus isolate 11, strain 8226): 16 µg/mL and 32 µg/mL; MIC (E. cloacae [6]; E. cloacae isolate 12, strain ATCC 13047): 32 µg/mL and 64 µg/mL; MIC (E. cloacae [6]; E. cloacae isolate 14, strain 938-2): 32 µg/mL and 16 µg/mL; MIC (E. cloacae [6]; E. cloacae isolate 15, strain B5546): 32 µg/mL; MIC (E. cloacae [6]; E. cloacae isolate 17, strain R4148-2): 16 µg/mL and 32 µg/mL; MIC (E. cloacae [6]; E. cloacae isolate 18, strain 3077): 32 µg/mL; MIC (E. cloacae [6]; E. cloacae isolate 19, strain 3356): 32 µg/mL; MIC (P. aeruginosa [7]; P. aeruginosa isolate 23, strain ATCC 27853): 32 µg/mL and 64 µg/mL; MIC (P. aeruginosa [7]; P. aeruginosa isolate 24, strain 34): 32 µg/mL and 16 µg/mL; MIC (P. aeruginosa [7]; P. aeruginosa isolate 25, strain 923-1): 32 µg/mL and 64 µg/mL; MIC (P. aeruginosa [7]; P. aeruginosa isolate 26, strain 3101): 32 µg/mL and 64 µg/mL; MIC (P. aeruginosa [7]; P. aeruginosa isolate 29, strain 15545): 32 µg/mL and 64 µg/mL; MIC (P. aeruginosa [7]; P. aeruginosa isolate 32, strain W2897-1): 32 µg/mL and 64 µg/mL; MIC (X. maltophila; X. maltophila isolate 35, strain 6): 32 µg/mL and 16 µg/mL; MIC (X. maltophila; X. maltophila isolate 36, strain 16): 32 µg/mL; MIC (X. maltophila; X. maltophila isolate 37, strain 3095): 64 µg/mL; MIC (X. maltophila; X. maltophila isolate 38, strain 7901): 64 µg/mL; MIC (X. maltophila; X. maltophila isolate 39, strain B3110.1): 32 µg/mL; MIC (X. maltophila; X. maltophila isolate 40, strain R1302-1): 32 µg/mL and 64 µg/mL; MIC (X. maltophila; X. maltophila isolate 41, strain R4230): 16 µg/mL and 32 µg/mL; MIC (X. maltophila; X. maltophila isolate 43, strain TF29-2): 16 µg/mL and 32 µg/mL
